Measurements published in ChEMBL document CHEMBL5104173, “Combining monoamine oxidase B and semicarbazide-sensitive amine oxidase enzyme inhibition to address inflammatory disease” (Bioorg Med Chem Lett, 2022).

Columns and labels:
[1] = molecular target: recombinant human DAO (diamine oxidase) (Homo sapiens, UniProt P19801); assay: Inhibition of human recombinant DAO
[2] = molecular target: T1, Amine oxidase [flavin-containing] A (Homo sapiens, UniProt P21397); assay: Inhibition of human recombinant MAO-A
T1 sequence (P21397 whole entry): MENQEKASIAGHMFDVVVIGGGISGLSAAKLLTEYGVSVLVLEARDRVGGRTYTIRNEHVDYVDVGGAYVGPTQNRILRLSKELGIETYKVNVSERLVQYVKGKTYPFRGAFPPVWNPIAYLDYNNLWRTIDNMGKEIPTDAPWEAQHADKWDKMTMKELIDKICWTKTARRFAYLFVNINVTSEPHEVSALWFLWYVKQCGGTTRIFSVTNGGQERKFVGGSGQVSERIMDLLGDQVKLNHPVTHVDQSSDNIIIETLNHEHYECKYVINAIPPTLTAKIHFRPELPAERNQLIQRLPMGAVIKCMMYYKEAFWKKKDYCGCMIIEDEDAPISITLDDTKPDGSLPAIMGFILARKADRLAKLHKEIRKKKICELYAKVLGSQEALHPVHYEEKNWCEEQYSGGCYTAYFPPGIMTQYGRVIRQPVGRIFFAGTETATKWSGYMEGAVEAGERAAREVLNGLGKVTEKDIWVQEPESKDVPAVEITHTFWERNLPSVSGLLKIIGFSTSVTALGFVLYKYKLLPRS

[3] = Inhibition of calcium channel (unknown origin) at 10 uM; format: toxicity; conditions: human
[4] = Inhibition of potassium channel (unknown origin) at 10 uM; format: toxicity; conditions: human
[5] = Inhibition of sodium channel (unknown origin) at 10 uM; format: toxicity; conditions: human
[6] = molecular target: T2, Amine oxidase [flavin-containing] B (Homo sapiens, UniProt P27338); assay: Inhibition of human recombinant MAO-B
T2 sequence (P27338 whole entry): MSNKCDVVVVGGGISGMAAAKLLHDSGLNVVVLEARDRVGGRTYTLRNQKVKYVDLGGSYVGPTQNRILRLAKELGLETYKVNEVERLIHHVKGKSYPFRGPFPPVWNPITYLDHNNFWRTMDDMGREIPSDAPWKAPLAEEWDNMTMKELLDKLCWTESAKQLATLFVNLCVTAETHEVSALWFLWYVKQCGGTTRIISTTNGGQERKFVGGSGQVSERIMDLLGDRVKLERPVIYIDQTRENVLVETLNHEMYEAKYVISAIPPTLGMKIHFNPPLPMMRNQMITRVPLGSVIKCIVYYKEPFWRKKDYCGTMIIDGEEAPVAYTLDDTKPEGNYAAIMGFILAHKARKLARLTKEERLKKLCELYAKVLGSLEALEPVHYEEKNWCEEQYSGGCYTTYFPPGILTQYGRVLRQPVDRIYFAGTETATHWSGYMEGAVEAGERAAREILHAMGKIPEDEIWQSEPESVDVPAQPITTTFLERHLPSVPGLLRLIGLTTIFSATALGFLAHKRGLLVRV

Row | IC50 [1] [nM] | IC50 [2] [nM] | IC50 [6] [nM] | SMILES | inhibition (INH) [3] | inhibition (INH) [4] | inhibition (INH) [5]
1 | > 30000 | 460 | – | Cl.NCC(=CF)C1Cc2ccccc2O1 (mixture of isomers) | Active | Active | Active
2 | 1600 | 2500 | 9 | NCC(=CF)COc1ccccc1 (mixture of isomers) | – | – | –
3 | > 30000 | 6800 | – | NC/C(=C/F)[C@H]1Cc2ccccc2O1 | – | – | –
4 | > 30000 | 750 | 2 | NC/C(=C/F)CCc1ccc(F)cc1 [MOFEGILINE] | – | – | –
5 | > 30000 | 4000 | 13 | NC/C(=C\F)COc1ccccc1 | – | – | –
